PubChem BioAssay (NCI)
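These data come from cells grown in 96-well plates and exposed to compound for 48 hours at five concentrations. TGI denotes the concentration required for complete inhibition of growth.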

Tested on: EKVX NSCLC
Assay: inhibition of tumour cell growth, NCI panel, 48 h

SMILES | TGI [µM]
CO[C@@]12C[C@@H](C)C3=CCC(C)=C3CC1=C(C)C(=O)O2 | > 100
N=C(N)C1CN(CCc2c[nH]c3ccccc23)C(=O)NC1=O (configuration not stated) | > 100
O=c1[nH]nnc2c1sc1ncccc12 | > 100
CCOC1(OCC)C2C=CC1C(COS(=O)(=O)c1ccc(C)cc1)C2COS(=O)(=O)c1ccc(C)cc1 (configuration not stated) | > 100
O=C1Nc2cccc(Cl)c2/C1=C\c1c(Cl)nc2n1CCS2 | > 100
CC(=O)CCn1c(=S)sc2ccccc21 | > 100
C=CCc1cccc2cc(C(=O)NCc3ccccc3)c(=N)oc12 | > 100
CC1CC(OP(=O)(OCc2ccccc2)OCc2ccccc2)[C@@H](OCc2ccccc2)C(OCc2ccccc2)C1OCc1ccccc1 (some centres not stated) | > 100
COc1cc(OC)c2nc(C)c(CCCl)c(Cl)c2c1 | > 100
C[C@H]1[C@H]2[C@H]3CC[C@@H]4[C@@]5(C)CC[C@H](O)C(C)(C)[C@@H]5CC[C@@]4(C)[C@]3(C)C[C@H](O)[C@@]2(C)C[C@H]2O[C@]21C | 73.9
N#C[C@H](c1ccccn1)c1nc2ccccc2nc1Cl | > 100
Cc1c(C)c2c(c(N)c1C#N)C(=O)N(NC(=O)c1ccccc1)C2=O | > 100
O=C(/C=C/c1ccccc1)CCC1C(=O)c2ccccc2C1=O | > 100
CC(=O)OC(OC(C)=O)c1ccc2ccc3cccc4ccc1c2c34 | 80.6
CCOC(=O)CCC(NC(=O)Cc1ccc(Nc2nc3cc(F)c(F)cc3nc2C(=O)OCC)cc1)C(=O)OCC (configuration not stated) | > 100

Tested on: CAKI-1 renal
Assay: inhibition of tumour cell growth, NCI panel, 48 h

SMILES | TGI [µM]
CC(=O)Nc1sc(Br)cc1S(=O)(=O)c1ccc(Cl)cc1 | > 100
CC1(C)C(C#N)C1C1=C(N2CCOCC2)[C@]2(C)C(OC(=O)c3ccccc3)CC[C@@H]2C1 (some centres not stated) | > 100
CN(CCSCCN(C)C(=O)OC(C)(C)C)C(=O)OC(C)(C)C | > 100
N#Cc1n[nH]n(-c2ccc(Br)cc2)c1=O | > 100
CO[C@@]12C[C@@H](C)C3=CCC(C)=C3CC1=C(C)C(=O)O2 | > 100
O=c1[nH]nnc2c1sc1ncccc12 | > 100
Fc1ccc2c(c1)nc1n2C(c2c(Cl)cccc2Cl)SC1 (configuration not stated) | 25
O=C1Nc2cccc(Cl)c2/C1=C\c1c(Cl)nc2n1CCS2 | > 100
CC(=O)CCn1c(=S)sc2ccccc21 | > 100
C=CCc1cccc2cc(C(=O)NCc3ccccc3)c(=N)oc12 | > 100
CC1CC(OP(=O)(OCc2ccccc2)OCc2ccccc2)[C@@H](OCc2ccccc2)C(OCc2ccccc2)C1OCc1ccccc1 (some centres not stated) | > 100
COc1cc(OC)c2nc(C)c(CCCl)c(Cl)c2c1 | > 100
C[C@H]1[C@H]2[C@H]3CC[C@@H]4[C@@]5(C)CC[C@H](O)C(C)(C)[C@@H]5CC[C@@]4(C)[C@]3(C)C[C@H](O)[C@@]2(C)C[C@H]2O[C@]21C | 69.8
N#C[C@H](c1ccccn1)c1nc2ccccc2nc1Cl | > 100
Cc1c(C)c2c(c(N)c1C#N)C(=O)N(NC(=O)c1ccccc1)C2=O | > 100
O=C(/C=C/c1ccccc1)CCC1C(=O)c2ccccc2C1=O | > 100
CC(=O)OC(OC(C)=O)c1ccc2ccc3cccc4ccc1c2c34 | 32.5
CCOC(=O)CCC(NC(=O)Cc1ccc(Nc2nc3cc(F)c(F)cc3nc2C(=O)OCC)cc1)C(=O)OCC (configuration not stated) | > 100

Tested on: OVCAR-3 ovarian
Assay: inhibition of tumour cell growth, NCI panel, 48 h

SMILES | TGI [µM]
CC(=O)Nc1sc(Br)cc1S(=O)(=O)c1ccc(Cl)cc1 | 47.2
CC1(C)C(C#N)C1C1=C(N2CCOCC2)[C@]2(C)C(OC(=O)c3ccccc3)CC[C@@H]2C1 (some centres not stated) | > 100
CN(CCSCCN(C)C(=O)OC(C)(C)C)C(=O)OC(C)(C)C | > 100
N#Cc1n[nH]n(-c2ccc(Br)cc2)c1=O | > 100
CO[C@@]12C[C@@H](C)C3=CCC(C)=C3CC1=C(C)C(=O)O2 | > 100
N=C(N)C1CN(CCc2c[nH]c3ccccc23)C(=O)NC1=O (configuration not stated) | > 100
O=c1[nH]nnc2c1sc1ncccc12 | > 100
Fc1ccc2c(c1)nc1n2C(c2c(Cl)cccc2Cl)SC1 (configuration not stated) | 26
CCOC1(OCC)C2C=CC1C(COS(=O)(=O)c1ccc(C)cc1)C2COS(=O)(=O)c1ccc(C)cc1 (configuration not stated) | > 100
O=C1Nc2cccc(Cl)c2/C1=C\c1c(Cl)nc2n1CCS2 | > 100
CC(=O)CCn1c(=S)sc2ccccc21 | > 100
C=CCc1cccc2cc(C(=O)NCc3ccccc3)c(=N)oc12 | 58.6
COc1cc(OC)c2nc(C)c(CCCl)c(Cl)c2c1 | > 100
C[C@H]1[C@H]2[C@H]3CC[C@@H]4[C@@]5(C)CC[C@H](O)C(C)(C)[C@@H]5CC[C@@]4(C)[C@]3(C)C[C@H](O)[C@@]2(C)C[C@H]2O[C@]21C | 36.4
N#C[C@H](c1ccccn1)c1nc2ccccc2nc1Cl | > 100
Cc1c(C)c2c(c(N)c1C#N)C(=O)N(NC(=O)c1ccccc1)C2=O | > 100
O=C(/C=C/c1ccccc1)CCC1C(=O)c2ccccc2C1=O | > 100
CC(=O)OC(OC(C)=O)c1ccc2ccc3cccc4ccc1c2c34 | > 100
CCOC(=O)CCC(NC(=O)Cc1ccc(Nc2nc3cc(F)c(F)cc3nc2C(=O)OCC)cc1)C(=O)OCC (configuration not stated) | > 100

Tested on: NCI-H226 lung
Assay: inhibition of tumour cell growth, NCI panel, 48 h

SMILES | TGI [µM]
CC(=O)Nc1sc(Br)cc1S(=O)(=O)c1ccc(Cl)cc1 | 57.1
CC1(C)C(C#N)C1C1=C(N2CCOCC2)[C@]2(C)C(OC(=O)c3ccccc3)CC[C@@H]2C1 (some centres not stated) | > 100
N#Cc1n[nH]n(-c2ccc(Br)cc2)c1=O | > 100
CO[C@@]12C[C@@H](C)C3=CCC(C)=C3CC1=C(C)C(=O)O2 | > 100
N=C(N)C1CN(CCc2c[nH]c3ccccc23)C(=O)NC1=O (configuration not stated) | > 100
O=c1[nH]nnc2c1sc1ncccc12 | > 100
Fc1ccc2c(c1)nc1n2C(c2c(Cl)cccc2Cl)SC1 (configuration not stated) | 37.7
CCOC1(OCC)C2C=CC1C(COS(=O)(=O)c1ccc(C)cc1)C2COS(=O)(=O)c1ccc(C)cc1 (configuration not stated) | 91.1
CC(=O)CCn1c(=S)sc2ccccc21 | > 100
C=CCc1cccc2cc(C(=O)NCc3ccccc3)c(=N)oc12 | 79.3
CC1CC(OP(=O)(OCc2ccccc2)OCc2ccccc2)[C@@H](OCc2ccccc2)C(OCc2ccccc2)C1OCc1ccccc1 (some centres not stated) | > 100
COc1cc(OC)c2nc(C)c(CCCl)c(Cl)c2c1 | > 100
N#C[C@H](c1ccccn1)c1nc2ccccc2nc1Cl | > 100
Cc1c(C)c2c(c(N)c1C#N)C(=O)N(NC(=O)c1ccccc1)C2=O | > 100
O=C(/C=C/c1ccccc1)CCC1C(=O)c2ccccc2C1=O | > 100
CC(=O)OC(OC(C)=O)c1ccc2ccc3cccc4ccc1c2c34 | 8.43
CCOC(=O)CCC(NC(=O)Cc1ccc(Nc2nc3cc(F)c(F)cc3nc2C(=O)OCC)cc1)C(=O)OCC (configuration not stated) | > 100

Tested on: BT-549 breast
Assay: inhibition of tumour cell growth, NCI panel, 48 h

SMILES | TGI [µM]
CC(=O)Nc1sc(Br)cc1S(=O)(=O)c1ccc(Cl)cc1 | 74.8
CC1(C)C(C#N)C1C1=C(N2CCOCC2)[C@]2(C)C(OC(=O)c3ccccc3)CC[C@@H]2C1 (some centres not stated) | > 100
CN(CCSCCN(C)C(=O)OC(C)(C)C)C(=O)OC(C)(C)C | > 100
N#Cc1n[nH]n(-c2ccc(Br)cc2)c1=O | > 100
CO[C@@]12C[C@@H](C)C3=CCC(C)=C3CC1=C(C)C(=O)O2 | > 100
N=C(N)C1CN(CCc2c[nH]c3ccccc23)C(=O)NC1=O (configuration not stated) | > 100
O=c1[nH]nnc2c1sc1ncccc12 | > 100
Fc1ccc2c(c1)nc1n2C(c2c(Cl)cccc2Cl)SC1 (configuration not stated) | 30.5
CCOC1(OCC)C2C=CC1C(COS(=O)(=O)c1ccc(C)cc1)C2COS(=O)(=O)c1ccc(C)cc1 (configuration not stated) | > 100
O=C1Nc2cccc(Cl)c2/C1=C\c1c(Cl)nc2n1CCS2 | > 100
CC(=O)CCn1c(=S)sc2ccccc21 | > 100
C=CCc1cccc2cc(C(=O)NCc3ccccc3)c(=N)oc12 | > 100
CC1CC(OP(=O)(OCc2ccccc2)OCc2ccccc2)[C@@H](OCc2ccccc2)C(OCc2ccccc2)C1OCc1ccccc1 (some centres not stated) | > 100
COc1cc(OC)c2nc(C)c(CCCl)c(Cl)c2c1 | > 100
C[C@H]1[C@H]2[C@H]3CC[C@@H]4[C@@]5(C)CC[C@H](O)C(C)(C)[C@@H]5CC[C@@]4(C)[C@]3(C)C[C@H](O)[C@@]2(C)C[C@H]2O[C@]21C | 41.5
N#C[C@H](c1ccccn1)c1nc2ccccc2nc1Cl | > 100
Cc1c(C)c2c(c(N)c1C#N)C(=O)N(NC(=O)c1ccccc1)C2=O | > 100
O=C(/C=C/c1ccccc1)CCC1C(=O)c2ccccc2C1=O | > 100
CC(=O)OC(OC(C)=O)c1ccc2ccc3cccc4ccc1c2c34 | 53.6
CCOC(=O)CCC(NC(=O)Cc1ccc(Nc2nc3cc(F)c(F)cc3nc2C(=O)OCC)cc1)C(=O)OCC (configuration not stated) | > 100

Tested on: SW-620 colon
Assay: inhibition of tumour cell growth, NCI panel, 48 h

SMILES | TGI [µM]
CC(=O)Nc1sc(Br)cc1S(=O)(=O)c1ccc(Cl)cc1 | > 100
CC1(C)C(C#N)C1C1=C(N2CCOCC2)[C@]2(C)C(OC(=O)c3ccccc3)CC[C@@H]2C1 (some centres not stated) | > 100
CN(CCSCCN(C)C(=O)OC(C)(C)C)C(=O)OC(C)(C)C | > 100
